# Like-named read-outs stand apart in the source and are kept apart here.
# Columns and labels:
# [1] = target: recombinant RSV complex (Human respiratory syncytial virus A, UniProt P28887); experiment: RSV polymerase inhibition assay; type: biochemical; conditions: 2 h at 30° C., Table E = <1 μM, Table F = <50 μM
# Protocol: Standard RSV polymerase assays were conducted in the presence of 10 nM recombinant RSV complex in a reaction buffer containing Tris-HCl pH7.5, 6 mM MgCl2, and other additives and substrates including RNA oligonucleotides and radionucleotides. Standard reactions were incubated in 96-well plate format for 2 h at 30° C., in the presence of increasing concentration of inhibitor. The reaction was stopped with 90 μL of 0.1M EDTA, and the reaction product was transferred to a “reading” 96-well plate. After washing of the plate, radiolabeled RNA products were detected according to standard procedures with a Trilux Topcount scintillation counter. The compound concentration at which the enzyme-catalyzed rate was reduced by 50% (IC50) was calculated by fitting the data to a non-linear regression (sigmoidal).
# [2] = test system: RSV subgenomic replicon 395 HeLa and APC126; experiment: RSV subgenomic replicon assay (Renilla luciferase); type: cell-based; conditions: human respiratory syncytial virus; RSV replicon cells (395 HeLa 7 days or APC126 3 days); Table G = less than 1 μM, Table H = equal to or higher than 1 μM and less than 50 μM
# Text: The RSV subgenomic replicon 395 HeLa and APC126 were licensed from Apath (Brooklyn, N.Y.) and were originally developed by Dr. Mark Meeples of Center for Vaccines & Immunity, the Research Institute at Nationwide Children's Hospital in Columbus, Ohio. To generate subgenomic RSV replicon, three glycoprotein genes, those for SH, G, and F, from a full-length recombinant GFP-expressing (rg) RSV antigenomic cDNA were deleted. In their place, a blasticidin S deaminase (bsd) gene was inserted. Through multiple steps, the RSV replicon was established in HeLa cells (395 Hela) or BHK cells (APC126). Both 395 HeLa and APC126 cells were cultured in Dulbecco's Modified Eagle Medium (DMEM) containing 4500 mg/L D-glucose, L-glutamine, and 110 mg/L sodium pyruvate (Invitrogen, Cat. #11995-040). The medium was further supplemented with 10% (v/v) fetal bovine serum (FBS) (Mediatech, Cat. #35-010-CV), 1% (v/v) penicillin/streptomycin (Mediatech, Cat. #30-002-CI), and 10 μg/mL of Blasticidin (BSD) (Invivogen, Cat. code ant-bl-1). Cells were maintained at 37° C. in a humidified 5% CO2 atmosphere.
# Determination of 50% inhibitory concentration (EC50), 90% inhibitory concentration (EC90) and 50% cytotoxic concentration (CC50) in RSV replicon cells were performed by the following procedure. On the first day, 5000 RSV replicon cells per well were plated in a 96-well plate. On the following day, compounds to be tested were solubilized in 100% DMSO to 100X the desired final testing concentration. Each compound was serially diluted (1:3) up to 9 distinct concentrations. Compounds in 100% DMSO were reduced to 10% (v/v) DMSO by diluting 1:10 in cell culture media. A 10 μL sample of the compounds diluted to 10% (v/v) DMSO with cell culture media was used to treat the RSV replicon cells in 96-well format. The final DMSO concentration was 1% (v/v). Cells were incubated with compounds for 7 days (for 395Hela) or 3 days (for APC126) at 37° C. in a 5% CO2 atmosphere. In each assay, positive control that was previously characterized in the RSV replicon assay was included.
# The Renilla Luciferase Assay System (Promega, Cat. #E2820) was used to measure anti-RSV replicon activity. Assay plates were set up as stated above. Luminescence was recorded using a Perkin Elmer multilabel counter Victor3V. EC50, the concentration of the drug required for reducing RSV replicon RNA by 50% in relation to the untreated cell control value, was calculated from the plot of percentage reductions of the […] against the drug concentrations using the Microsoft Excel forecast function.
# [3] = Cytotoxicity determination (CCK-8, without addition of virus); type: cell-based; conditions: human, HEp-2 cells (uninfected), no virus, Table C = greater than 100 μM, Table D = equal to or less than 100 μM and greater than 10 μM
# Protocol: CPE reduction assays are performed as described by Sidwell and Huffman et al., Appl. Microbiol. (1971) 22(5):797-801 with slight modifications. HEp-2 cells (ATCC#, CCL-23) are seeded at a density of 1,500 cells/30 μL/well into the 384-well cell plate(s) (Corning#3701) one day prior to the assay. Compounds are added into 384-well cell plates by Labcyte POD 810 Plate Assembler system. Each of the test compounds is provided to duplicate wells of a 384-well cell plate at final concentrations starting from 100 μM or 1 μM using 1/3 stepwise dilutions for 9 points. Quick-thaw Respiratory Syncytial Virus (RSV) long strain (ATCC#VR-26) stock in a 37° C. water bath. Place on ice until ready to use. Viruses are diluted to the concentration of 100 TCID50/30 μL with medium and 30 μl diluted RSV are added into related wells of 384-well cell plates. For each plate, sixteen wells are set aside as uninfected, untreated cell controls (CC), and nine wells per test plate receive virus only as a control for virus replication (VC). The final DMSO concentration of all wells is 1%. Place the plates at 37° C., 5% CO2 for 5 days.
# In order to determine the compound cytotoxicity, in parallel, each of the compounds is applied to duplicate wells in a 384-well cell plate at serial final concentrations starting from 100 μM using ½ stepwise dilutions for 7 points without addition of virus. Incubate the cells at 37° C., 5% CO2 for 5 days. Add 6 μL CCK-8 into each well and incubate in a CO2 incubator at 37° C. for 3-4 h. Read the plates to obtain the optical densities which are used to calculate 50% cytotoxicity concentration (CC50).
# [4] = 10 nM recombinant RSV complex, read-out: IC50
# recombinant RSV complex, sequence (P28887 whole entry): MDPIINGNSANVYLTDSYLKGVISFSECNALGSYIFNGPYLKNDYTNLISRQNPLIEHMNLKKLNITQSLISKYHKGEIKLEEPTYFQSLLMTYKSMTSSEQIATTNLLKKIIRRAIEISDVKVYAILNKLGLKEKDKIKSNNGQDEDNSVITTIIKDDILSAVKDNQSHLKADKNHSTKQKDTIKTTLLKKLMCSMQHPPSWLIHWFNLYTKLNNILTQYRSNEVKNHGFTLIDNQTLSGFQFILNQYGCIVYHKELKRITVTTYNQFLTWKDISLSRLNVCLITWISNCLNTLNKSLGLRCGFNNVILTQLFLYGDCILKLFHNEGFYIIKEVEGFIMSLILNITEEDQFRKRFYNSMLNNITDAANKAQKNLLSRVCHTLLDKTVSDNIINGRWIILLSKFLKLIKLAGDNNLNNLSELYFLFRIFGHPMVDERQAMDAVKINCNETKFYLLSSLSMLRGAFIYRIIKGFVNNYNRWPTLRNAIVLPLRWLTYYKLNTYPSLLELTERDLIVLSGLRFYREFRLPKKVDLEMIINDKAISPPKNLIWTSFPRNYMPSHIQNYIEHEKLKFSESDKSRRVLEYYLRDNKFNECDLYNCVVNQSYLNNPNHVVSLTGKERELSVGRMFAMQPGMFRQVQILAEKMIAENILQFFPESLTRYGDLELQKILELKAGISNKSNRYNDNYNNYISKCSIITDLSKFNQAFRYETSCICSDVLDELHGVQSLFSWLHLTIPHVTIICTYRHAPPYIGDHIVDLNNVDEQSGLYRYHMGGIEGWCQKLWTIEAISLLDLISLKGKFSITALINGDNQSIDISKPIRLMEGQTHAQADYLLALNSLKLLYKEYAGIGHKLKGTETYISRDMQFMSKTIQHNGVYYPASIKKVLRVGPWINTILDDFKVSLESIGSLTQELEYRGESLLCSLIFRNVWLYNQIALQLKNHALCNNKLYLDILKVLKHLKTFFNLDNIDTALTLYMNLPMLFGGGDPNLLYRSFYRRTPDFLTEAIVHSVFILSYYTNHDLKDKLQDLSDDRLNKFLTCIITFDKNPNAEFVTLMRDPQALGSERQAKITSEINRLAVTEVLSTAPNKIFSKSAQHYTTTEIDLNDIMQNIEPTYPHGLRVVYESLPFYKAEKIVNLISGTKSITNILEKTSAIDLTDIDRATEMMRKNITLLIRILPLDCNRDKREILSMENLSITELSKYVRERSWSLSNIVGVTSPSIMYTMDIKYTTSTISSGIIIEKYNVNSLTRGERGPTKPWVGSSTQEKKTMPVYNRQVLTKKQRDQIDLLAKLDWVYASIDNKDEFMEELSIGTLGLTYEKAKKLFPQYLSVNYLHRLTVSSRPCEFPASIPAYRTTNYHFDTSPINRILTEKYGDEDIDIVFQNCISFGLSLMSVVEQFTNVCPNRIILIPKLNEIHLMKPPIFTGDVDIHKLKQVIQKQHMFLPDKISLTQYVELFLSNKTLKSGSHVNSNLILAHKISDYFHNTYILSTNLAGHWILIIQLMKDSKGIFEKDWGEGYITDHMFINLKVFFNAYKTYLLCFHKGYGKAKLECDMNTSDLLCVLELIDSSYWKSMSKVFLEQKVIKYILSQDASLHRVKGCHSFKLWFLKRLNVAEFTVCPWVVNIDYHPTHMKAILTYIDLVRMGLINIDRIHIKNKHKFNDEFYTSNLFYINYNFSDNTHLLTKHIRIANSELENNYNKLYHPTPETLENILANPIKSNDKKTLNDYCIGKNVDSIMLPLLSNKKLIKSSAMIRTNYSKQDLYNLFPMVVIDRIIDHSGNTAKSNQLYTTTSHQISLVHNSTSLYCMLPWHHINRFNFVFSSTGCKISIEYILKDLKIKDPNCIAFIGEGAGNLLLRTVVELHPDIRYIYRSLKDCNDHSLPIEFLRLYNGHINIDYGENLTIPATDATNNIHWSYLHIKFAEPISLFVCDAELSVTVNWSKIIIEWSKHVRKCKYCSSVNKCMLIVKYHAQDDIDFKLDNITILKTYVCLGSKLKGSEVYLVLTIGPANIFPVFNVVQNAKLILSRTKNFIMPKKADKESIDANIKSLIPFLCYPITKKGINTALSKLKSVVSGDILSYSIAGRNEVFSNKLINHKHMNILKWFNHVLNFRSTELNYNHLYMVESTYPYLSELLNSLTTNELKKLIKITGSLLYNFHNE
# recombinant RSV complex, sequence (P03421 whole entry, further chain): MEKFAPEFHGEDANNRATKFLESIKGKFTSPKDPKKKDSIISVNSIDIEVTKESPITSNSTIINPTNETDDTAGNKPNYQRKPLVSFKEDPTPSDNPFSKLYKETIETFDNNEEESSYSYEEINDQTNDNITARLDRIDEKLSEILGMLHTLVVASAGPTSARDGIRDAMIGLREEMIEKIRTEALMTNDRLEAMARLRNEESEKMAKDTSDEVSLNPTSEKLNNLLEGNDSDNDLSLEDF
SMILES,"IC50 [1, 4]",EC50 [2],CC50 at 5 days [3],"IC50 ([1]; IC50, 10 nM recombinant RSV complex)"
"COc1cc(C(=O)NCC(O)(c2cc3c(c(-c4ccc(F)cc4)n2)OCCC3(C)N)C(F)(F)F)ccc1OCC(C)O (single isomer, unassigned) [Compound 86]",< 1 µM,1 to 50 µM,10 to 100 µM,
"COc1cc(C(=O)NC[C@](O)(c2cc3c(c(-c4ccc(F)cc4)n2)OCC[C@]3(C)N)C(F)(F)F)ccc1OC[C@@H](C)O (single isomer, unassigned) [Compound 87]",< 1 µM,< 1 µM,> 100 µM,
"COc1cc(C(=O)NC[C@@](O)(c2cc3c(c(-c4ccc(F)cc4)n2)OC[C@]3(N)C2CC2)C(F)(F)F)ccc1OC[C@@H](C)O (single isomer, unassigned) [Compound 106]",< 1 µM,< 1 µM,10 to 100 µM,
"COc1cc(C(=O)NC[C@](O)(c2cc3c(c(-c4ccc(F)cc4)n2)OC[C@]3(N)C2CC2)C(F)(F)F)ccc1OC[C@@H](C)O (single isomer, unassigned) [Compound 107]",< 50 µM,1 to 50 µM,10 to 100 µM,
COc1cc(C(=O)NCC(O)(c2cc3c(c(-c4ccc(F)cc4)n2)OCC3(C)N)C(F)(F)F)cc2c1NC(=O)CC2 (stereo not drawn) [Compound 11],< 1 µM,< 1 µM,10 to 100 µM,
COc1cc(C(=O)NCC(O)(c2cc(C(C)CCN)cc(-c3ccc(F)cc3)n2)C(F)(F)F)ccc1OCCO (stereo not drawn) [Compound 13],< 1 µM,< 1 µM,10 to 100 µM,
C[C@@]1(N)COc2c1cc(C(O)(CNC(=O)c1ccc3[nH]ccc3c1)C(F)(F)F)nc2-c1ccc(F)cc1 (stereo partly drawn) [Compound 16],< 1 µM,< 1 µM,10 to 100 µM,
COc1cc(C(=O)NCC(O)(c2cc(C3CCNCC3)cc(-c3ccc(F)cc3)n2)C(F)(F)F)ccc1OCCO (stereo not drawn) [Compound 18],< 1 µM,< 1 µM,10 to 100 µM,
COc1cc(C(=O)NC[C@@](O)(c2cc3c(c(-c4ccc(F)cc4)n2)OC[C@@]3(C)N)C(F)(F)F)ccc1-c1nc(C)no1 [Compound 19],< 1 µM,< 1 µM,10 to 100 µM,
COc1cnc(C(=O)NCC(O)(c2cc3c(c(-c4ccc(F)cc4)n2)OCC3(C)N)C(F)(F)F)cc1OC (stereo not drawn) [Compound 20],< 1 µM,< 1 µM,10 to 100 µM,
COc1cc(C(=O)NCC(O)(c2cc3c(c(-c4ccc(F)cc4)n2)OCC3(C)N)C(F)(F)F)ccc1OC(C)CO (stereo not drawn) [Compound 21],< 1 µM,< 1 µM,10 to 100 µM,
CC1(N)COc2c1cc(C(O)(CNC(=O)c1ccc(CO)c(OC3CC3)c1)C(F)(F)F)nc2-c1ccc(F)cc1 (stereo not drawn) [Compound 22],< 1 µM,< 1 µM,10 to 100 µM,
COc1ccc(C(=O)NCC(O)(c2cc3c(c(-c4ccc(F)cc4)n2)OCC3(C)N)C(F)(F)F)cc1OC1CC1 (stereo not drawn) [Compound 23],< 1 µM,< 1 µM,10 to 100 µM,
CC1(N)COc2c1cc(C(O)(CNC(=O)c1ccc(OCCO)c(OC3CC3)c1)C(F)(F)F)nc2-c1ccc(F)cc1 (stereo not drawn) [Compound 24],< 1 µM,< 1 µM,10 to 100 µM,
COc1cc(C(=O)NCC(O)(c2cc3c(c(-c4ccncc4)n2)OCC3(C)N)C(F)(F)F)ccc1OCCO (stereo not drawn) [Compound 26],< 50 µM,1 to 50 µM,> 100 µM,
COc1cc(C(=O)NCC(O)(c2cc3c(c(-c4ccc(F)cc4)n2)OCC3(C)N)C(F)(F)F)ccc1NCCO (stereo not drawn) [Compound 30],< 1 µM,< 1 µM,10 to 100 µM,
COc1cc(C(=O)NCC(O)(c2cc3c(c(-c4ccc(F)cc4)n2)OCC3(C)N)C(F)(F)F)ccc1NC1CC1 (stereo not drawn) [Compound 31],< 1 µM,< 1 µM,10 to 100 µM,
CC(C)(N)c1cc(-c2ccc(F)cc2)nc(C(O)(CNC(=O)c2ccc(OCCO)c(OC3CC3)c2)C(F)(F)F)c1 (stereo not drawn) [Compound 34],< 1 µM,< 1 µM,10 to 100 µM,
CC(C)(N)c1cc(-c2ccc(F)cc2)nc(C(O)(CNC(=O)c2ccc(OC3CC3)c(OCCO)c2)C(F)(F)F)c1 (stereo not drawn) [Compound 36],< 1 µM,< 1 µM,10 to 100 µM,
COc1ccc(C(=O)NCC(O)(c2cc(C(C)(C)N)cc(-c3ccc(F)cc3)n2)C(F)(F)F)cc1OCCO (stereo not drawn) [Compound 37],< 1 µM,< 1 µM,> 100 µM,
C[C@@H](O)COc1cc(C(=O)NCC(O)(c2cc(C(C)(C)N)cc(-c3ccc(F)cc3)n2)C(F)(F)F)ccc1OC1CC1 (stereo partly drawn) [Compound 38],,< 1 µM,10 to 100 µM,< 1 µM
COc1ccc(C(=O)NCC(O)(c2cc(C(C)(C)N)cc(-c3ccc(F)cc3)n2)C(F)(F)F)cc1OC[C@@H](C)O (stereo partly drawn) [Compound 39],< 1 µM,< 1 µM,10 to 100 µM,
COc1cc(C(=O)NCC(N)(c2cc(C(C)(C)N)cc(-c3ccc(F)cc3)n2)C(F)(F)F)ccc1OCCO (stereo not drawn) [Compound 40],< 1 µM,< 1 µM,> 100 µM,
CC(C)(N)c1cc(-c2ccc(F)cc2)nc(C(N)(CNC(=O)c2ccc(OC3CC3)c(OCCO)c2)C(F)(F)F)c1 (stereo not drawn) [Compound 41],< 1 µM,< 1 µM,10 to 100 µM,

# Source: US10358453B2, “Antiviral compounds” (priority 2015, dated 2019)
